In patent US20230057568A1, “COMPOUNDS FOR TREATING FAMILIAL DYSAUTONOMIA” (PTC THERAPEUTICS, INC., priority 2019, published 2023):

Test system: Elongator complex protein 1 (ELP1, also referred to as IKBKAP)
Assay: IKBKAP-HTRF Assay
Type: cell-based, human
Settings: FD patient-derived fibroblasts GM04589, 48 hours incubation; for EC2x for IKBKAP protein expression (concentration producing two times the amount of IKBKAP protein vs DMSO vehicle control): 7-point concentration curve; for MFI (maximum fold increase in IKBKAP protein abundance relative to the vehicle control): HTRF
Experimental: The assay is used for the quantitative determination of Elongator complex protein 1 (ELP1, also referred to as IKBKAP) concentration in cell lysates using the HTRF® (Homogeneous Time-Resolved Fluorescence) technology. IKBKAP is detected in a sandwich HTRF assay by use of an anti-IKAP antibody labeled with a donor and an anti-IKAP antibody labeled with an acceptor.
Cells were thawed and incubated in DMEM-10% FBS for 72 hours. Cells were trypsinized, counted, and re-suspended to a concentration of 50,000 cells/mL in DMEM-10% FBS. A 199 μL, aliquot of the cell suspensions were plated at 10,000 cells per well in a 96 well microtiter plate and incubated for 3 to 5 hours. […] Test compounds were serially diluted 3.16-fold in 100% DMSO to generate a 7-point concentration curve. A 1 μL aliquot of 200× compound solution was transferred to cell-containing wells, and cells were incubated for 48 hours in a cell culture incubator (37° C., 5% CO2, 100% relative humidity). Triplicate samples were set up for each compound concentration. After 48 hours, the supernatant was removed from the cells and 50 μL of the 1× LB4 lysis buffer, containing protease inhibitors, was added to the cells and incubated with shaking at room temperature for 1 hour. A 36 μL aliquot of this lysate was subsequently transferred to the 384-well plate containing 4 μL of the antibody solution (1:50 dilution of anti IKAP d2 and anti-IKAP K(9+8) in detection buffer). The 384-well plate was then centrifuged for 1 minute to bring the solutions to the bottom of the plate and incubated overnight at 4° C. Fluorescence for each well of the plate at 665 nm and 620 nm was measured was on the EnVision plate reader (Perkin Elmer). The AF for each sample is calculated by: […]
wherein Signal is the normalized fluorescence for each sample well and Blank is the average normalized average fluorescence for the Blank control wells.
The maximum fold increase (MFI) in IKBKAP protein abundance for compounds of Formula (I) or a form thereof relative to the vehicle control are provided in Table 1. MFI was calculated by dividing the AF value for each sample well by the sample AF for the vehicle control wells.
The EC2× for IKBKAP protein expression obtained from the 7-point concentration curve generated for each test compound according to the protocol in Biological Example 1 are also provided in Table 1. The term “EC2× for IKBKAP protein expression” is defined as the concentration of test compound that is effective in producing two times the amount of IKBKAP protein in a FD patient cell compared to the amount produced from the DMSO vehicle control.

| Compound | EC2x for IKBKAP protein expression (concentration producing two times the amount of IKBKAP protein vs DMSO vehicle control) | MFI (maximum fold increase in IKBKAP protein abundance relative to the vehicle control) |
| --- | --- | --- |
| Clc1nc(NCc2ccncn2)c2sccc2n1 [Cpd 95, 2-chloro-N-[(pyrimidin-4-yl)methyl]thieno[3,2-d]pyrimidin-4-amine] | * (EC2×>1 μM) | *** (between >2.9 and <3.9) |
| Cc1csc2c(NCc3ccncc3)nc(Cl)nc12 [Cpd 23, 2-chloro-7-methyl-N-[(pyridin-4-yl)methyl]thieno[3,2-d]pyrimidin-4-amine] | *** (between >0.02 μM and ≤0.5 μM) | ***** (>4.9) |
| C[C@H](N)Cc1sc2c(NCc3cccs3)nc(C#N)nc2c1C#N [Cpd 85, 6-[(2S)-2-aminopropyl]-4-{[(thiophen-2-yl)methyl]amino}thieno[3,2-d]pyrimidine-2,7-dicarbonitrile] | *** (between >0.02 μM and ≤0.5 μM) | *** (between >2.9 and <3.9) |
| Cc1nc(NCc2ccco2)c2sc(C[C@H](C)N)c(C)c2n1 [Cpd 15, 6-[(2S)-2-aminopropyl]-N-[(furan-2-yl)methyl]-2,7-dimethylthieno[3,2-d]pyrimidin-4-amine] | **** (between >0.005 μM and ≤0.02 μM) | ***** (>4.9) |
| C[C@H](N)Cc1cc2nc(Cl)nc(NCc3cccs3)c2s1 [Cpd 14, 6-[(2S)-2-aminopropyl]-2-chloro-N-[(thiophen-2-yl)methyl]thieno[3,2-d]pyrimidin-4-amine] | **** (between >0.005 μM and ≤0.02 μM) | ***** (>4.9) |
| Cc1c(C[C@H](C)N)sc2c(NCc3ccco3)nc(Cl)nc12 [Cpd 12, 6-[(2S)-2-aminopropyl]-2-chloro-N-[(furan-2-yl)methyl]-7-methylthieno[3,2-d]pyrimidin-4-amine] | ***** (<0.005 μM) | ***** (>4.9) |
| Cc1c(C[C@H](C)N)sc2c(NCc3sccc3F)nc(Cl)nc12 [Cpd 90, 6-[(2S)-2-aminopropyl]-2-chloro-N-[(3-fluorothiophen-2-yl)methyl]-7-methylthieno[3,2-d]pyrimidin-4-amine] | ***** (<0.005 μM) | ***** (>4.9) |
| Cc1c(C[C@H](C)N)sc2c(NCc3ccco3)nc(C3CC3)nc12 [Cpd 17, 6-[(2S)-2-aminopropyl]-2-cyclopropyl-N-[(furan-2-yl)methyl]-7-methylthieno[3,2-d]pyrimidin-4-amine] | * (EC2×>1 μM) | * (MFI<1.9) |
| Cc1c(C[C@H](C)N)sc2c(NCc3ccncc3)nc(Cl)nc12 [Cpd 45, 6-[(2S)-2-aminopropyl]-2-chloro-7-methyl-N-[(pyridin-4-yl)methyl]thieno[3,2-d]pyrimidin-4-amine] | ***** (<0.005 μM) | ***** (>4.9) |
| Cc1c(C[C@@H]2CCOC(=O)N2)sc2c(NCc3ccco3)nc(Cl)nc12 [Cpd 52, (4S)-4-[(2-chloro-4-{[(furan-2-yl)methyl]amino}-7-methylthieno[3,2-d]pyrimidin-6-yl)methyl]-1,3-oxazinan-2-one] | * (EC2×>1 μM) | ** (between >1.9 and <2.9) |
| Cc1c(C[C@H](C)N)sc2c(NCc3c(F)cncc3F)nc(Cl)nc12 [Cpd 64, 6-[(2S)-2-aminopropyl]-2-chloro-N-[(3,5-difluoropyridin-4-yl)methyl]-7-methylthieno[3,2-d]pyrimidin-4-amine] | **** (between >0.005 μM and ≤0.02 μM) | ***** (>4.9) |
| COC[C@H](N)Cc1sc2c(NCc3ccco3)nc(Cl)nc2c1C [Cpd 76, 6-[(2R)-2-amino-3-methoxypropyl]-2-chloro-N-[(furan-2-yl)methyl]-7-methylthieno[3,2-d]pyrimidin-4-amine] | ***** (<0.005 μM) | ***** (>4.9) |
| Clc1nc(NCc2ccco2)c2scc(Br)c2n1 [Cpd 42, 7-bromo-2-chloro-N-[(furan-2-yl)methyl]thieno[3,2-d]pyrimidin-4-amine] | *** (between >0.02 μM and ≤0.5 μM) | ***** (>4.9) |
| Cc1cnc(CNc2nc(Cl)nc3c(C)c(C[C@H](C)N)sc23)s1 [Cpd 31, 6-[(2S)-2-aminopropyl]-2-chloro-7-methyl-N-[(5-methyl-1,3-thiazol-2-yl)methyl]thieno[3,2-d]pyrimidin-4-amine] | *** (between >0.02 μM and ≤0.5 μM) | *** (between >2.9 and <3.9) |
| C[C@H](N)c1sc2c(NCc3ccco3)nc(Cl)nc2c1-c1ccccc1 [Cpd 58, 6-[(1S)-1-aminoethyl]-2-chloro-N-[(furan-2-yl)methyl]-7-phenylthieno[3,2-d]pyrimidin-4-amine] | * (EC2×>1 μM) | * (MFI<1.9) |
| C[C@H](N)Cc1cc2nc(Cl)nc(NCc3ccncc3)c2s1 [Cpd 9, 6-[(2S)-2-aminopropyl]-2-chloro-N-[(pyridin-4-yl)methyl]thieno[3,2-d]pyrimidin-4-amine] | **** (between >0.005 μM and ≤0.02 μM) | ***** (>4.9) |
| Cc1c(C[C@H](C)N)sc2c(NCc3ccnn3C)nc(Cl)nc12 [Cpd 81, 6-[(2S)-2-aminopropyl]-2-chloro-7-methyl-N-[(1-methyl-1H-pyrazol-5-yl)methyl]thieno[3,2-d]pyrimidin-4-amine] | * (EC2×>1 μM) | * (MFI<1.9) |
| Cc1csc2c(NCc3ccco3)nc(Cl)nc12 [Cpd 18, 2-chloro-N-[(furan-2-yl)methyl]-7-methylthieno[3,2-d]pyrimidin-4-amine] | *** (between >0.02 μM and ≤0.5 μM) | ***** (>4.9) |
| Cc1c(C2CNC2)sc2c(NCc3ccco3)nc(Cl)nc12 [Cpd 41, 6-(azetidin-3-yl)-2-chloro-N-[(furan-2-yl)methyl]-7-methylthieno[3,2-d]pyrimidin-4-amine] | *** (between >0.02 μM and ≤0.5 μM) | ** (between >1.9 and <2.9) |
| C[C@H](N)c1sc2c(NCc3ccco3)nc(Cl)nc2c1Br [Cpd 46, 6-[(1S)-1-aminoethyl]-7-bromo-2-chloro-N-[(furan-2-yl)methyl]thieno[3,2-d]pyrimidin-4-amine] | * (EC2×>1 μM) | * (MFI<1.9) |
| Cc1c(C[C@@H](N)CCF)sc2c(NCc3ccco3)nc(Cl)nc12 [Cpd 51, 6-[(2S)-2-amino-4-fluorobutyl]-2-chloro-N-[(furan-2-yl)methyl]-7-methylthieno[3,2-d]pyrimidin-4-amine] | ***** (<0.005 μM) | ***** (>4.9) |
| Cc1c(C[C@H](C)N)sc2c(NCc3cnco3)nc(Cl)nc12 [Cpd 75, 6-[(2S)-2-aminopropyl]-2-chloro-7-methyl-N-[(1,3-oxazol-5-yl)methyl]thieno[3,2-d]pyrimidin-4-amine] | *** (between >0.02 μM and ≤0.5 μM) | ***** (>4.9) |
